Reference: patent publication US9469650B2, “Melampomagnolide B derivatives” (BOARD OF TRUSTEES OF THE UNIVERSITY OF ARKANSAS, priority 2013, dated 2016)

What was measured:
NCI/ADR-RES = test: panel of 60 human tumor cell lines, growth inhibition (Ovarian Cancer)
LOX IMVI = test: panel of 60 human tumor cell lines, growth inhibition (Melanoma)
MOLT-4 = test: panel of 60 human tumor cell lines, growth inhibition (Leukemia); conditions: MOLT-4
SK-MEL-28 = test: panel of 60 human tumor cell lines, growth inhibition (Melanoma); conditions: SK-MEL-28
HCT-116 = test: panel of 60 human tumor cell lines, growth inhibition (Colon Cancer); conditions: HCT-116
OVCAR-3 = test: panel of 60 human tumor cell lines, growth inhibition (Ovarian Cancer); conditions: OVCAR-3
PC-3 = test: panel of 60 human tumor cell lines, growth inhibition (Prostate Cancer); conditions: PC-3
A549/ATCC = test: panel of 60 human tumor cell lines, growth inhibition (Non-Small Cell Lung Cancer); conditions: A549/ATCC
SW-620 = test: panel of 60 human tumor cell lines, growth inhibition (Colon Cancer); conditions: SW-620
CAKI-1 = test: panel of 60 human tumor cell lines, growth inhibition (Renal Cancer); conditions: CAKI-1
SK-MEL-2 = test: panel of 60 human tumor cell lines, growth inhibition (Melanoma); conditions: SK-MEL-2
T-47D = test: panel of 60 human tumor cell lines, growth inhibition (Breast Cancer); conditions: T-47D
SN12C = test: panel of 60 human tumor cell lines, growth inhibition (Renal Cancer)
UO-31 = test: as above; conditions: UO-31
SK-MEL-5 = test: panel of 60 human tumor cell lines, growth inhibition (Melanoma); conditions: 8K-MEL-5
MCF7 = test: panel of 60 human tumor cell lines, growth inhibition (Breast Cancer); conditions: MCF7
MDA-MB-231/ATCC = test: as above; conditions: MDA-MB-231/ATCC
M14 = test: panel of 60 human tumor cell lines, growth inhibition (Melanoma); conditions: M14
SNB-75 = test: panel of 60 human tumor cell lines, growth inhibition (CNS Cancer); conditions: SNB-75

C=C1C(=O)O[C@H]2[C@H]1CC/C(COC(=O)NCCO)=C\CC[C@@]1(C)O[C@@H]21 [JVM 2-50]
Percent Growth (NCI/ADR-RES; Log10 Concentration −4.0): 16% | Percent Growth (NCI/ADR-RES; Log10 Concentration −5.0): 105% | Percent Growth (NCI/ADR-RES; Log10 Concentration −6.0): 106% | Percent Growth (NCI/ADR-RES; Log10 Concentration −7.0): 113% | Percent Growth (NCI/ADR-RES; Log10 Concentration −8.0): 108% | GI50 (NCI/ADR-RES; NCI five dose): 41.5 µM | TGI (NCI/ADR-RES; NCI five dose): >1.00E−4 | Percent Growth (LOX IMVI; Log10 Concentration −4.0): −88% | Percent Growth (LOX IMVI; Log10 Concentration −5.0): 67% | Percent Growth (LOX IMVI; Log10 Concentration −6.0): 98% | Percent Growth (LOX IMVI; Log10 Concentration −7.0): 102% | Percent Growth (LOX IMVI; Log10 Concentration −8.0): 100% | GI50 (LOX IMVI; NCI five dose): 12.9 µM | TGI (LOX IMVI; NCI five dose): 2.72E−5 | Percent Growth (MOLT-4; Log10 Concentration −4.0): −39% | Percent Growth (MOLT-4; Log10 Concentration −5.0): 43% | Percent Growth (MOLT-4; Log10 Concentration −6.0): 103% | Percent Growth (MOLT-4; Log10 Concentration −7.0): 114% | Percent Growth (MOLT-4; Log10 Concentration −8.0): 106% | GI50 (MOLT-4; NCI five dose): 7.65 µM | Percent Growth (SK-MEL-28; Log10 Concentration −4.0): −61% | Percent Growth (SK-MEL-28; Log10 Concentration −5.0): 48% | Percent Growth (SK-MEL-28; Log10 Concentration −6.0): 99% | Percent Growth (SK-MEL-28; Log10 Concentration −7.0): 104% | Percent Growth (SK-MEL-28; Log10 Concentration −8.0): 95% | GI50 (SK-MEL-28; NCI five dose): 9.33 µM | TGI (SK-MEL-28; NCI five dose): 2.77E−5 | Percent Growth (HCT-116; Log10 Concentration −4.0): −75% | Percent Growth (HCT-116; Log10 Concentration −5.0): 15% | Percent Growth (HCT-116; Log10 Concentration −6.0): 90% | Percent Growth (HCT-116; Log10 Concentration −7.0): 96% | Percent Growth (HCT-116; Log10 Concentration −8.0): 93% | GI50 (HCT-116; NCI five dose): 3.43 µM | TGI (HCT-116; NCI five dose): 1.48E−5 | CC50 (HCT-116; read-out: LC50, NCI five dose): 53.2 µM | Percent Growth (OVCAR-3; Log10 Concentration −4.0): −93% | Percent Growth (OVCAR-3; Log10 Concentration −5.0): 40% | Percent Growth (OVCAR-3; Log10 Concentration −6.0): 103% | Percent Growth (OVCAR-3; Log10 Concentration −7.0): 106% | Percent Growth (OVCAR-3; Log10 Concentration −8.0): 103% | GI50 (OVCAR-3; NCI five dose): 6.27 µM | TGI (OVCAR-3; NCI five dose): 1.99E−5 | Percent Growth (PC-3; Log10 Concentration −4.0): −21% | Percent Growth (PC-3; Log10 Concentration −5.0): 94% | Percent Growth (PC-3; Log10 Concentration −6.0): 97% | Percent Growth (PC-3; Log10 Concentration −7.0): 93% | Percent Growth (PC-3; Log10 Concentration −8.0): 98% | GI50 (PC-3; NCI five dose): 24.1 µM | TGI (PC-3; NCI five dose): 6.57E−5 | Percent Growth (A549/ATCC; Log10 Concentration −4.0): 3% | Percent Growth (A549/ATCC; Log10 Concentration −5.0): 93% | Percent Growth (A549/ATCC; Log10 Concentration −6.0): 96% | Percent Growth (A549/ATCC; Log10 Concentration −7.0): 92% | Percent Growth (A549/ATCC; Log10 Concentration −8.0): 96% | GI50 (A549/ATCC; NCI five dose): 30.2 µM | TGI (A549/ATCC; NCI five dose): >1.00E−4 | Percent Growth (SW-620; Log10 Concentration −4.0): −71% | Percent Growth (SW-620; Log10 Concentration −5.0): 93% | Percent Growth (SW-620; Log10 Concentration −6.0): 101% | Percent Growth (SW-620; Log10 Concentration −7.0): 104% | Percent Growth (SW-620; Log10 Concentration −8.0): 102% | GI50 (SW-620; NCI five dose): 18.2 µM | TGI (SW-620; NCI five dose): 3.67E−5 | Percent Growth (CAKI-1; Log10 Concentration −4.0): −65% | Percent Growth (CAKI-1; Log10 Concentration −5.0): 48% | Percent Growth (CAKI-1; Log10 Concentration −6.0): 87% | Percent Growth (CAKI-1; Log10 Concentration −7.0): 91% | Percent Growth (CAKI-1; Log10 Concentration −8.0): 89% | GI50 (CAKI-1; NCI five dose): 8.99 µM | TGI (CAKI-1; NCI five dose): 2.67E−5 | Percent Growth (SK-MEL-2; Log10 Concentration −4.0): −54% | Percent Growth (SK-MEL-2; Log10 Concentration −5.0): 83% | Percent Growth (SK-MEL-2; Log10 Concentration −6.0): 115% | Percent Growth (SK-MEL-2; Log10 Concentration −7.0): 116% | Percent Growth (SK-MEL-2; Log10 Concentration −8.0): 106% | GI50 (SK-MEL-2; NCI five dose): 18.5 µM | TGI (SK-MEL-2; NCI five dose): 4.18E−5 | Percent Growth (T-47D; Log10 Concentration −4.0): −54% | Percent Growth (T-47D; Log10 Concentration −5.0): 16% | Percent Growth (T-47D; Log10 Concentration −6.0): 69% | Percent Growth (T-47D; Log10 Concentration −7.0): 95% | Percent Growth (T-47D; Log10 Concentration −8.0): 89% | GI50 (T-47D; NCI five dose): 3.46 µM | TGI (T-47D; NCI five dose): 1.71E−5 | Percent Growth (SN12C; Log10 Concentration −4.0): −12% | Percent Growth (SN12C; Log10 Concentration −5.0): 73% | Percent Growth (SN12C; Log10 Concentration −6.0): 31% | Percent Growth (SN12C; Log10 Concentration −7.0): 91% | Percent Growth (SN12C; Log10 Concentration −8.0): 94% | GI50 (SN12C; NCI five dose): 18.6 µM | TGI (SN12C; NCI five dose): 7.22E−5 | Percent Growth (UO-31; Log10 Concentration −4.0): −65% | Percent Growth (UO-31; Log10 Concentration −5.0): 67% | Percent Growth (UO-31; Log10 Concentration −6.0): 96% | Percent Growth (UO-31; Log10 Concentration −7.0): 99% | Percent Growth (UO-31; Log10 Concentration −8.0): 95% | GI50 (UO-31; NCI five dose): 13.5 µM | TGI (UO-31; NCI five dose): 3.23E−5 | Percent Growth (SK-MEL-5; Log10 Concentration −4.0): −34% | Percent Growth (SK-MEL-5; Log10 Concentration −5.0): 84% | Percent Growth (SK-MEL-5; Log10 Concentration −6.0): 100% | Percent Growth (SK-MEL-5; Log10 Concentration −7.0): 100% | Percent Growth (SK-MEL-5; Log10 Concentration −8.0): 102% | GI50 (SK-MEL-5; NCI five dose): 19.5 µM | TGI (SK-MEL-5; NCI five dose): 5.15E−5 | Percent Growth (MCF7; Log10 Concentration −4.0): −59% | Percent Growth (MCF7; Log10 Concentration −5.0): 16% | Percent Growth (MCF7; Log10 Concentration −6.0): 84% | Percent Growth (MCF7; Log10 Concentration −7.0): 89% | Percent Growth (MCF7; Log10 Concentration −8.0): 87% | GI50 (MCF7; NCI five dose): 3.16 µM | TGI (MCF7; NCI five dose): 1.61E−5 | Percent Growth (MDA-MB-231/ATCC; Log10 Concentration −4.0): −66% | Percent Growth (MDA-MB-231/ATCC; Log10 Concentration −5.0): 63% | Percent Growth (MDA-MB-231/ATCC; Log10 Concentration −6.0): 99% | Percent Growth (MDA-MB-231/ATCC; Log10 Concentration −7.0): 91% | Percent Growth (MDA-MB-231/ATCC; Log10 Concentration −8.0): 100% | GI50 (MDA-MB-231/ATCC; NCI five dose): 12.7 µM | TGI (MDA-MB-231/ATCC; NCI five dose): 1.10E−5 | Percent Growth (M14; Log10 Concentration −4.0): −57% | Percent Growth (M14; Log10 Concentration −5.0): 56% | Percent Growth (M14; Log10 Concentration −6.0): 92% | Percent Growth (M14; Log10 Concentration −7.0): 97% | Percent Growth (M14; Log10 Concentration −8.0): 91% | GI50 (M14; NCI five dose): 11.2 µM | TGI (M14; NCI five dose): 3.11E−5 | Percent Growth (SNB-75; Log10 Concentration −4.0): −20% | Percent Growth (SNB-75; Log10 Concentration −5.0): 68% | Percent Growth (SNB-75; Log10 Concentration −6.0): 79% | Percent Growth (SNB-75; Log10 Concentration −7.0): 79% | Percent Growth (SNB-75; Log10 Concentration −8.0): 70% | GI50 (SNB-75; NCI five dose): 16 µM | TGI (SNB-75; NCI five dose): 5.92E−5
